Blank lines part the entries; values can stand above or below the molecule they belong to.
How the values were obtained:
[1] = Compatibility study of HAase and antibiotic in solution: appearance of the solution; type: physicochemical; conditions: 8 solutions of antibiotic (two concentrations) with HAase 150-6000 units/ml in physiological saline
Procedure: (§1) The compatibility of HAase and an antibiotic was studied by preparing a solution comprising the two substances. A dry Meropenem power for injection was dissolved in physiological saline to give a concentration of 5 mg/ml and 50 mg/ml, and then HAase was added to give a final concentration of 150, 500, 2000, and 6000 units/ml respectively. After preparation, the solution was left to stand at room temperature for 15 min. The appearance of the solution was observed, and the concentration of HAase was determined.
as §1, with “dry Ceftriaxone sodium” for “dry Meropenem”, “of 50” for “of 5”, “and 250” for “and 50”
as §1, with “dry Azithromycin” for “dry Meropenem”, “of 10” for “of 5”, “and 100” for “and 50”
as §1, with “dry Cefradine powder” for “dry Meropenem power”, “of 50” for “of 5”, “and 250” for “and 50”
as §1, with “dry Teicoplanin powder” for “dry Meropenem power”, “of 10” for “of 5”, “and 70” for “and 50”
as §1, with “dry Ceftazidime powder” for “dry Meropenem power”, “of 20” for “of 5”, “and 200” for “and 50”
as §1, with “dry Ertapenem” for “dry Meropenem”, “of 30” for “of 5”, “and 300” for “and 50”
The compatibility of HAase and an antibiotic was studied by preparing a solution comprising the two substances. A dry Polymyxin B powder for injection was dissolved in physiological saline to give a concentration of 50,000 units/ml and 250,000 units/ml, and then HAase was added to give a final concentration of 150, 500, 2000, and 6000 units/ml respectively.

HAase [2] = target: T1, HAase (Homo sapiens, UniProt P38567); experiment: Compatibility study of HAase and antibiotic in solution: HAase activity; type: biochemical; conditions: 15 min room temperature; for Final concentration of HAase (units/ml) 150: HAase added to 150 units/ml; for Final concentration of HAase (units/ml) 500: HAase added to 500 units/ml; for Final concentration of HAase (units/ml) 2000: HAase added to 2000 units/ml; for Final concentration of HAase (units/ml) 6000: HAase added to 6000 units/ml; for interference with the activity of HAase: antibiotic and HAase in physiological saline
T1 construct: made in house
T1 sequence (P38567 36-482): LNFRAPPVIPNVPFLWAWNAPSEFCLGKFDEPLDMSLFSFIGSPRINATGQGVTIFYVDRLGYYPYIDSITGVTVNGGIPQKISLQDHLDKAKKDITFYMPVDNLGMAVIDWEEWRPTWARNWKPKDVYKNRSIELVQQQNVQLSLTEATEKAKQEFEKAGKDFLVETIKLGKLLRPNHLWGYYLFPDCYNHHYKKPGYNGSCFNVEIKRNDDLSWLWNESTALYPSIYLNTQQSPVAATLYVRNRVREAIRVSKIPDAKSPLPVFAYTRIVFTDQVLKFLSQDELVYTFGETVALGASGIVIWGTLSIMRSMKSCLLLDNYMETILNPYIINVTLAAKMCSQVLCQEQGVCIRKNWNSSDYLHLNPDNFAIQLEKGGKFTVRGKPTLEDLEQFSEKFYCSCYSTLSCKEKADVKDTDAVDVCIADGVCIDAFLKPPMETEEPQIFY
Procedure: “HAase activity refers to the ability of HAase to catalytically cleave hyaluronic acid. The Chinese Pharmacopoeia provides a method for determining the HAase activity, indirectly by measuring the amount of remaining higher-molecular-weight hyaluronic acid substrate after the enzyme is allowed to catalytically cleave hyaluronic acid at 37° C. for 30 min. A standard reference solution can be used in the assay to determine the relative activity (in units) of any HAase. In-vitro assays for the determination of HAase are known in the art. Exemplary assays include micro-turbidimetric assay described below, which indirectly measures the cleavage of hyaluronic acid by HAase by detecting an insoluble precipitate formed when uncleaved hyaluronic acid binds to serum albumin. The reference standard can be used, for example, to generate a standard curve, so as to determine the activity of the tested HAase in units.
as §1
as §1, with “dry Ceftriaxone sodium” for “dry Meropenem”, “of 50” for “of 5”, “and 250” for “and 50”
as §1, with “dry Azithromycin” for “dry Meropenem”, “of 10” for “of 5”, “and 100” for “and 50”
as §1, with “dry Cefradine powder” for “dry Meropenem power”, “of 50” for “of 5”, “and 250” for “and 50”
as §1, with “dry Teicoplanin powder” for “dry Meropenem power”, “of 10” for “of 5”, “and 70” for “and 50”
as §1, with “dry Ceftazidime powder” for “dry Meropenem power”, “of 20” for “of 5”, “and 200” for “and 50”, “min.” for “min. The appearance of the solution was observed, and the concentration of HAase was determined.”

HAase [3] = target: T1, HAase; experiment: as above; type: biochemical; conditions: antibiotic 50,000 units/ml in physiological saline; HAase added to 150 units/ml; 15 min room temperature
[4] = antibiotic 10 mg/ml in physiological saline
[5] = antibiotic 100 mg/ml in physiological saline
[6] = antibiotic 5 mg/ml in physiological saline
[7] = antibiotic 50 mg/ml in physiological saline
[8] = antibiotic 50,000 units/ml in physiological saline
[9] = antibiotic 250,000 units/ml in physiological saline

- appearance of the solution [1]: clear and transparent
- Final concentration of HAase (units/ml) 150 (HAase [2]; [4]): 152 units/ml
- Final concentration of HAase (units/ml) 500 (HAase [2]; [4]): 482 units/ml
- Final concentration of HAase (units/ml) 2000 (HAase [2]; [4]): 1651 units/ml
- Final concentration of HAase (units/ml) 6000 (HAase [2]; [4]): 6140 units/ml
- Final concentration of HAase (units/ml) 150 (HAase [2]; [5]): 140 units/ml
- Final concentration of HAase (units/ml) 500 (HAase [2]; [5]): 500 units/ml
- Final concentration of HAase (units/ml) 2000 (HAase [2]; [5]): 1760 units/ml
- Final concentration of HAase (units/ml) 6000 (HAase [2]; [5]): 5818 units/ml
Molecule: CC[C@H]1OC(=O)[C@H](C)[C@@H](O[C@H]2C[C@@](C)(OC)[C@@H](O)[C@H](C)O2)[C@H](C)[C@@H](O[C@@H]2O[C@H](C)C[C@H](N(C)C)[C@H]2O)[C@](C)(O)C[C@@H](C)CN(C)[C@H](C)[C@@H](O)[C@]1(C)O [Azithromycin]
- interference with the activity of HAase (HAase [2]): does not interfere with the activity of HAase

- appearance of the solution [1]: clear and transparent
- Final concentration of HAase (units/ml) 150 (HAase [2]; [6]): 150 units/ml
- Final concentration of HAase (units/ml) 500 (HAase [2]; [6]): 511 units/ml
- Final concentration of HAase (units/ml) 2000 (HAase [2]; [6]): 1979 units/ml
- Final concentration of HAase (units/ml) 6000 (HAase [2]; [6]): 6271 units/ml
- Final concentration of HAase (units/ml) 150 (HAase [2]; [7]): 145 units/ml
- Final concentration of HAase (units/ml) 500 (HAase [2]; [7]): 491 units/ml
- Final concentration of HAase (units/ml) 2000 (HAase [2]; [7]): 1984 units/ml
- Final concentration of HAase (units/ml) 6000 (HAase [2]; [7]): 6121 units/ml
Molecule: C[C@@H](O)[C@H]1C(=O)N2C(C(=O)O)=C(S[C@@H]3CN[C@H](C(=O)N(C)C)C3)[C@H](C)[C@H]12 [Meropenem]
- interference with the activity of HAase (HAase [2]): does not interfere with the activity of HAase

Molecule: Polymyxin B
- appearance of the solution [1]: clear and transparent
- Final concentration of HAase (units/ml) 150 (HAase [3]): 149 units/ml
- Final concentration of HAase (units/ml) 500 (HAase [2]; [8]): 488 units/ml
- Final concentration of HAase (units/ml) 2000 (HAase [2]; [8]): 2126 units/ml
- Final concentration of HAase (units/ml) 6000 (HAase [2]; [8]): 5899 units/ml
- Final concentration of HAase (units/ml) 150 (HAase [2]; [9]): 151 units/ml
- Final concentration of HAase (units/ml) 500 (HAase [2]; [9]): 501 units/ml
- Final concentration of HAase (units/ml) 2000 (HAase [2]; [9]): 2014 units/ml
- Final concentration of HAase (units/ml) 6000 (HAase [2]; [9]): 6090 units/ml
- interference with the activity of HAase (HAase [2]): does not interfere with the activity of HAase

— patent publication US20250099557A1, “ANTIBIOTIC PHARMACEUTICAL COMPOSITION CAPABLE OF SUBCUTANEOUS ADMINISTRATION” (SHANGHAI BAO PHARMACEUTICALS CO., LTD., priority 2021, published 2025)
